Several values for one entry are separate records, joined by “and”; a condition that tells them apart may be missing. Equal entries are not always repeated.
What was measured:
PRMTs = assay: Screen against protein arginine methyltransferases, summary statement
Procedure: (§1) A 10 mM DMSO stock solution of each test compound was prepared.
(§2) Compounds were tested in a single-dose mode, in duplicate at the following concentrations.
(§3) Reactions were carried out at 1 μM SAM. The no inhibitor control was set as 100% activity).

human PPARα = biological target: T1, human PPARα (Homo sapiens, UniProt Q07869); settings: at 1 μM; COS-1 cells, human PPARα and RXRα; cited from earlier work
T1 sequence (Q07869 1-468): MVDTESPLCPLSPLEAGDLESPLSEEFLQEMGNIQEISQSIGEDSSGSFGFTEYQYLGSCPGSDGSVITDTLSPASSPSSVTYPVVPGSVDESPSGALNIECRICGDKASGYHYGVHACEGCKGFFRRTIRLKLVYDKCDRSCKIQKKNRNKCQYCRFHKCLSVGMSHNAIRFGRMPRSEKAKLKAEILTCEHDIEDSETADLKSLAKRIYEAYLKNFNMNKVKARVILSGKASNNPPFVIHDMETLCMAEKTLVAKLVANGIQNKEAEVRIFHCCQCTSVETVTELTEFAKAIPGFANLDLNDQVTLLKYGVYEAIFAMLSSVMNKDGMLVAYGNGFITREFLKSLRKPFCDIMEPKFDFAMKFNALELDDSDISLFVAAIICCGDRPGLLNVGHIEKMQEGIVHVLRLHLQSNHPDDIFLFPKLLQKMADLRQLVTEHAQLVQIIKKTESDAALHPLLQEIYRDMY
T1 sequence (P19793 1-462 partner): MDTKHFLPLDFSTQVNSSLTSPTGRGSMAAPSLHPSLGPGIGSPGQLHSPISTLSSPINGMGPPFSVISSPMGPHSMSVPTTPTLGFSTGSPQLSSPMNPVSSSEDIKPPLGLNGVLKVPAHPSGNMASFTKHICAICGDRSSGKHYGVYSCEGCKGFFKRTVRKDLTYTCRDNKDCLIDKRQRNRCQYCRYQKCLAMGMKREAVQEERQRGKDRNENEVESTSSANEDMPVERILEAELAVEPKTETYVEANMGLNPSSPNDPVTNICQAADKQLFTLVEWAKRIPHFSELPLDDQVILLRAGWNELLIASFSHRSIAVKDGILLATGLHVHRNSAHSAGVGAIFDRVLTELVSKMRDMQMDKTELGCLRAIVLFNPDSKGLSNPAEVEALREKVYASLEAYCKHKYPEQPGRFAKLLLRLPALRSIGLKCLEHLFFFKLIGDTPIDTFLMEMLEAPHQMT

PRMT1 = PRMT1 (Homo sapiens, UniProt Q99873); assay: Methyltransferase activity screen, PRMT1, substrate Histone H4; settings: single-dose mode, duplicate (Data 1, Data 2), 1 μM SAM, 100 μM
Procedure: as §1, §2, §3

PRMT6 = PRMT6 (Homo sapiens, UniProt Q96LA8); assay: Methyltransferase activity screen, PRMT6, substrate Histone H3; settings: PRMT6; substrate Histone H3; single-dose mode, duplicate (Data 1, Data 2); 1 μM SAM; 100 μM
Procedure: as §1, §2, §3

PRMT5 = PRMT5 (Homo sapiens, UniProt O14744); assay: Methyltransferase activity screen, PRMT5, substrate Histone H2A
Procedure: as §1, §2, §3

PRMT5/MEP50 = PRMT5/MEP50 (Homo sapiens, UniProt O14744); assay: Methyltransferase activity screen and profiling, PRMT5/MEP50, substrate Histone H2A; settings: PRMT5/MEP50; substrate Histone H2A; single-dose mode, duplicate (Data 1, Data 2); 1 μM SAM; 100 μM
Sequence of PRMT5/MEP50 (O14744 whole entry): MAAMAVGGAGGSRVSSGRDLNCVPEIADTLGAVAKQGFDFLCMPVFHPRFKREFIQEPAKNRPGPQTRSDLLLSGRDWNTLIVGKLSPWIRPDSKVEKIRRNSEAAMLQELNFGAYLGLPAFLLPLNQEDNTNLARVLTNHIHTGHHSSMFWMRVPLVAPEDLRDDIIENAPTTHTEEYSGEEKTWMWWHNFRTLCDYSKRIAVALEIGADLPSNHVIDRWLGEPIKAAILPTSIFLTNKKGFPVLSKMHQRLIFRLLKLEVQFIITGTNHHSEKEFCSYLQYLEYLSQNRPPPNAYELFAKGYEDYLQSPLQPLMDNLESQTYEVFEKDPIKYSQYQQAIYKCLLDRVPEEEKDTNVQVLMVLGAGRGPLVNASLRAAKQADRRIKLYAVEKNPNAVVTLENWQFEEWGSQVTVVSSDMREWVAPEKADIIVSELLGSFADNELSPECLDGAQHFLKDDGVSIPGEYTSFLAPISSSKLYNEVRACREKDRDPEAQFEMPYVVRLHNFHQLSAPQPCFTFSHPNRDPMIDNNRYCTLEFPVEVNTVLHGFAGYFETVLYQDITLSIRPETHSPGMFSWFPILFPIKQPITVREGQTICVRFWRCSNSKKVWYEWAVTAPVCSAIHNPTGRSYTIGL
Sequence of PRMT5/MEP50 (Q9BQA1 whole entry partner): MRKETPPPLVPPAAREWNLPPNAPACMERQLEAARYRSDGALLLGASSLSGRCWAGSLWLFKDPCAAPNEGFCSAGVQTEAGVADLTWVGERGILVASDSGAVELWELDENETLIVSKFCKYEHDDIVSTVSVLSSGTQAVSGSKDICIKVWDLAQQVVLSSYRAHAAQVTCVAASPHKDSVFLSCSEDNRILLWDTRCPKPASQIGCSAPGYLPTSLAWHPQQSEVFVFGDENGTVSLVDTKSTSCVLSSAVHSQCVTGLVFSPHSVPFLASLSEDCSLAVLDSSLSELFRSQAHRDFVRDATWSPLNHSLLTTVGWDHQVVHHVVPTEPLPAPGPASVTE
Procedure: as §1, §2, §3

Sequence of PRMT5 (O14744 whole entry): as the sequence (O14744 whole entry) above
Sequence of PRMT6 (Q96LA8 whole entry): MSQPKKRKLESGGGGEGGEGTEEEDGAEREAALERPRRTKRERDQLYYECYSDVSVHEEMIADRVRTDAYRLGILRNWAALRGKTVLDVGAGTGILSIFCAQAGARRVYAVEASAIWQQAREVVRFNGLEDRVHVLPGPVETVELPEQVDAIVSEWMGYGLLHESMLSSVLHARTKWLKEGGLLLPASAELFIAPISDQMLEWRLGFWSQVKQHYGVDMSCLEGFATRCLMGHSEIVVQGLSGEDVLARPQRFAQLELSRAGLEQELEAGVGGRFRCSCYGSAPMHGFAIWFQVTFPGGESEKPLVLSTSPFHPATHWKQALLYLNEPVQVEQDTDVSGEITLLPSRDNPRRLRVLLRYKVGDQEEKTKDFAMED
Sequence of PRMT1 (Q99873 whole entry): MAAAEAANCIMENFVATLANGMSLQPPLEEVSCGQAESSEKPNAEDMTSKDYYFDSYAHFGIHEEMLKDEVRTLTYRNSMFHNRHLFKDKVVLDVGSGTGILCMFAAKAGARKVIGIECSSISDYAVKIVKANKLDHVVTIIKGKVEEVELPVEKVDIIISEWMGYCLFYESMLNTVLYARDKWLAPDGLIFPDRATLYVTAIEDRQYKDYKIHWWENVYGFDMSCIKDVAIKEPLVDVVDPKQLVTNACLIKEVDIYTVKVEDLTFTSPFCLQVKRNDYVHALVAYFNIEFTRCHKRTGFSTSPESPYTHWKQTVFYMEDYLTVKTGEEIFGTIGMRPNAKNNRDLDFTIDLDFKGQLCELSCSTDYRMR

Row | Structure (SMILES) | direct inhibitory effect on PRMTs (PRMTs) | activation of PPARα (human PPARα) | % Enzyme Activity (relative to DMSO controls) (PRMT1) | % Enzyme Activity (relative to DMSO controls) (PRMT6) | % Enzyme Activity (relative to DMSO controls) (PRMT5; PRMT5, substrate Histone H2A, single-dose mode, duplicate (Data 1, Data 2), 1 μM SAM, 100 μM) | inhibition of PRMT5 (PRMT5; at a concentration of 100 μM) | % Enzyme Activity (relative to DMSO controls) (PRMT5/MEP50)
1 | C[C@H](CCC(=O)O)[C@H]1CC[C@H]2[C@@H]3[C@H](O)C[C@@H]4C[C@H](O)CC[C@]4(C)[C@H]3CC[C@]12C [Chenodeoxycholic acid, 3α, 7α-dihydroxy-5β-cholan-24-oic acid] | no direct inhibitory effect | – | – | – | – | – | –
2 | CCc1ccc(CCOc2ccc(CC3SC(=O)NC3=O)cc2)nc1 (stereo not shown) [Pioglitazone, 5-[[4-[2-(5-ethyl-2-pyridinyl)ethoxy]phenyl]methyl]-2,4-thiazolidinedione] | – | low level activation | 110.44% and 99.23% | 93.46% and 102.78% | 18.95% and 18.46% | mild inhibitor | 43.68% and 45.13%
